Like-named read-outs stand apart in the source and are kept apart here. Non-standard residues stand in square brackets, D forms with d. Residues, ends and D or L forms follow the SMILES beside them. ξ: configuration not given here. *: point of attachment. ξR = N=C(N)NCCCC(N)C(=O)O; βNA = c1ccc2cc(N*)ccc2c1
Legend:
[1] = system: P. aeruginosa PAO1; type: cell-based, Pseudomonas aeruginosa; settings: inhibitor 10 ug/ml with TBO 250 μM, 30 min, wash; 660-nm light 100 mWcm^-2
[2] = system: S. aureus NorA-, wild type, and NorA+; assay: Photodynamic inactivation (PDI), light-dose dependent phototoxicity; type: cell-based, Staphylococcus aureus; settings: 10 μM; for logs less killing compared to wild-type: NorA overexpressing strain; for logs of killing: wild-type strain; for logs of killing / light dose by which strain is eliminated: 30 min; for light dose by which strain is eliminated: NorA knockout strain, 635-nm light 100 mWcm^-2; for logs less killing than wild-type: NorA overexpression strain, 635-nm light; for overall order of efficiency of killing: S. aureus NorA strains
Description: (§1) A polylysine-chlorine6 conjugate (pL-ce6), and Rose Bengal (RB) (Sigma-Aldrich) were used as non-phenothiazinium-based PS (FIG. 3). Stock solutions were prepared in water at a concentration of 2-mM and stored for a maximum of 2 weeks at 4° C. in the dark before use. Spectra of stock solutions diluted 140-280 fold in methanol were recorded on an UV-visible spectroscopy system (Waldbronn, Germany). A non-coherent light source with interchangeable fiber bundles (LC122, LumaCare, London, UK) was employed. Thirty-nm band pass filters at ranges 540±15 nm for RB, 635±15 nm for TBO, and DMMB, and 660±15 nm for MB and pLce6 were used. The total power output provided out of the fiber bundle ranged from 300-700 mW. The spot was arranged to give an irradiance of 100 mW/cm^2.
(§2) Bacterial suspensions in PBS (initial concentration 10^8 cells mL^−1) were incubated with PS in the dark at room temperature for 30 minutes at concentrations varying from 1-μM to 300-μM. The cell suspensions were centrifuged at 12000 rpm and then washed twice with sterile PBS. The bacterial suspensions were placed in wells of 96 well micro titer plates (Fisher Scientific) and illuminated with appropriate light at room temperature. Fluences ranged from 0 to 20 Jcm^−2 at a fluence rate of 100 mWcm^−2. During illumination, aliquots of […] were taken to determine the colony-forming units. The contents of the wells were mixed before sampling. The aliquots were serially diluted 10-fold in PBS to give dilutions of 10^−1-10^−6 times the original concentrations and were streaked horizontally on square BHI agar plates as described by Jett et al (1997). This allowed a maximum of seven logs of killing to be measured. Plates were incubated at 37° C. overnight. Two types of control conditions were used: illumination in the absence of photosensitizer and incubation with photosensitizer in the dark.
The three isogenic strains of S. aureus were incubated with 10 μM MB for 30 minutes and then washed free of unbound dye by centrifugation and resuspension in PBS and illuminated with 100 mWcm^−2 660-nm light, and the survival fractions determined as described above.
To establish the recognition of phenothiazinium dyes as a class by NorA, the experiments described in FIG. 4 were repeated with the phenothiazinium compounds TBO and DMMB. Incubation with the photosensitizer was for 30 min followed by a wash. Bacteria were then illuminated with 100 mWcm^−2 635-nm light for both TBO and DMMB. The results shown in FIGS. 7a and 7b show a similar pattern to the susceptibilities as was found for MB. The NorA knockout strain is eliminated by 1 J/cm2 in the case of TBO and by 0.5 J/cm2 in the case of DMMB. […]

[3] = system: P. aeruginosa MexAB-, wild type and MexAB+; type: cell-based, Pseudomonas aeruginosa; settings: wild-type strain; 300 μM; after 20 J/cm2
Description: A polylysine-chlorine6 conjugate (pL-ce6), and Rose Bengal (RB) (Sigma-Aldrich) were used as non-phenothiazinium-based PS (FIG. 3). Stock solutions were prepared in water at a concentration of 2-mM and stored for a maximum of 2 weeks at 4° C. in the dark before use. Spectra of stock solutions diluted 140-280 fold in methanol were recorded on an UV-visible spectroscopy system (Waldbronn, Germany). A non-coherent light source with interchangeable fiber bundles (LC122, LumaCare, London, UK) was employed. […] The total power output provided out of the fiber bundle ranged from 300-700 mW. The spot was arranged to give an irradiance of 100 mW/cm^2.
Bacterial suspensions in PBS (initial concentration 10^8 cells mL^−1) were incubated with PS in the dark at room temperature for 30 minutes at concentrations varying from 1-μM to 300-μM. The cell suspensions were centrifuged at 12000 rpm and then washed twice with sterile PBS. The bacterial suspensions were placed in wells of 96 well micro titer plates (Fisher Scientific) and illuminated with appropriate light at room temperature. Fluences ranged from 0 to 20 Jcm^−2 at a fluence rate of 100 mWcm^−2. During illumination, aliquots of 10 were taken to determine the colony-forming units. The contents of the wells were mixed before sampling. […] This allowed a maximum of seven logs of killing to be measured. […]

[4] = system: E. coli wild type and TolC-; type: cell-based, Escherichia coli
Description: as §1, §2
It was necessary to use higher overall PDI doses to kill the Gram-negative E. coli compared to the Gram-positive S. aureus. A concentration of MB of 50 μM was selected with the same 30-minute incubation and wash by centrifugation, together with light doses up to 20 J/cm^2.

NC(N)=NCCCC(NC(=O)[C@@H](N)Cc1ccccc1)C(=O)Nc1ccc2ccccc2c1 (stereo partly drawn) [MC207110] (H-Phe-[ξR]-βNA)
logs of killing [1]: 5 logs

O=C1OC2(c3cc(I)c(O)c(I)c3Oc3c2cc(I)c(O)c3I)c2c(Cl)c(Cl)c(Cl)c(Cl)c21 [RB, Rose Bengal]
differences in killing between the three NorA phenotypes ([2]; wash, 540-nm light 100 mWcm^-2): no differences in killing

CN(C)c1ccc2nc3ccc(=[N+](C)C)cc-3sc2c1 [MB, methylene blue]
killing ([2]; NorA knock-out, 660-nm light, after 1 J/cm^2): complete killing
logs less killing compared to wild-type ([2]; 660-nm light, at 1 J/cm^2): 1 log
logs less killing compared to wild-type ([2]; 660-nm light, at 2 J/cm^2): 2 logs
logs less killing compared to wild-type ([2]; 660-nm light, at 4 J/cm^2): 3 logs
logs of killing ([2]; wash, 660-nm light 100 mWcm^-2, after 1 J/cm^2): 3 logs
logs of killing ([2]; wash, 660-nm light, after 2 J/cm^2): 5 logs
logs of killing ([2]; wash, 660-nm light, after 4 J/cm^2): 7 logs
logs of killing [3]: 5 logs
logs more killing than wild-type ([4]; TolC knock-out mutant, 50 μM, 30 min, wash, at 5 J/cm^2): 2 logs
logs more killing than wild-type ([4]; TolC knock-out mutant, 50 μM, at 10 J/cm^2): three
killing ([4]; TolC knock-out mutant, 50 μM, light doses higher than 10 J/cm^2 (up to 20 J/cm^2)): totally eliminated
killing ([4]; TolC knock-out, 250 μM, after 20 J/cm^2 (data not shown)): totally eliminated
killing ([4]; wild-type, 250 μM, after 20 J/cm^2 (data not shown)): totally eliminated

Cc1cc(N(C)C)cc2[s+]c3cc(N(C)C)cc(C)c3nc12 [DMMB, 1,9-dimethylmethylene blue]
light dose by which strain is eliminated ([2]; wash): ≤ 0.5 J/cm2
logs less killing than wild-type [2]: roughly 2 logs
overall order of efficiency of killing [2]: DMMB>TBO>MB

Cc1cc2nc3ccc(N(C)C)cc3[s+]c2cc1N.[Cl-] [TBO, Toluidine blue O]
light dose by which strain is eliminated ([2]; wash): ≤ 1 J/cm2
logs less killing than wild-type [2]: roughly 2 logs
overall order of efficiency of killing [2]: DMMB>TBO>MB
